This is an account of results in PubChem BioAssay (NCI).

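Compound exposure: 48 hours, 5 concentrations, 96-well plates. GI50: concentration for 50% inhibition of growth. TGI marks complete inhibition of growth.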

Test systems include M14 melanoma; A498 renal; SK-MEL-28 melanoma; UACC-257 melanoma; MALME-3M melanoma; SW-620 colon; HCT-15 colon; HS 578T breast; OVCAR-8 ovarian; CAKI-1 renal.
Common to all, as to test: inhibition of tumour cell growth, NCI panel, 48 h

In the case of `CC(=O)Nc1ccc2c(c1)C(=O)c1cccc(F)c1-2`, the TGI in the assay with M14 melanoma, in the assay on A498 renal, with SK-MEL-28 melanoma, in the assay on UACC-257 melanoma, in the assay on MALME-3M melanoma and with SW-620 colon was more than 100 µM in each case. Besides, the TGI is more than 80.1 µM in the assay on HCT-15 colon, more than 100 µM with HS 578T breast, more than 100 µM with OVCAR-8 ovarian and more than 100 µM in the assay with CAKI-1 renal. In the assay on A498 renal, the GI50 was 31.3 µM.
In the case of `O[C@@H]1CCCN1Cc1cc2cc3c(cc2c2cc(OCc4ccccc4)ccc12)OCO3`, the GI50 in the assay on M14 melanoma is 1.81 µM; in the assay with A498 renal, 10.5 µM; in the assay with SK-MEL-28 melanoma, 1.78 µM; in the assay with UACC-257 melanoma, 2.17 µM; in the assay with MALME-3M melanoma, 2.37 µM; with SW-620 colon, 2.21 µM. Also, the GI50 is 3.47 µM in the assay with HCT-15 colon, 2.82 µM with HS 578T breast, 3.93 µM in the assay with OVCAR-8 ovarian and 3.42 µM with CAKI-1 renal. Further, the TGI in the assay with M14 melanoma came to 3.35 µM; in the assay with A498 renal, 25.3 µM; in the assay on SK-MEL-28 melanoma it was 3.85 µM; in the assay on UACC-257 melanoma, 4.37 µM; with MALME-3M melanoma, 5.44 µM; with SW-620 colon, 5.75 µM. Also, the TGI with HCT-15 colon was 12.3 µM; with HS 578T breast, 9.07 µM; in the assay with OVCAR-8 ovarian it was 17.6 µM; in the assay with CAKI-1 renal, 12.6 µM.
For the molecule `CO/N=C(\COc1ccc2c(c1)oc(=O)c1cc(OC)ccc12)c1cccc(OC)c1`, the GI50 was more than 100 µM in the assay on M14 melanoma; 80.2 µM in the assay with A498 renal; more than 100 µM in the assay on SK-MEL-28 melanoma; more than 100 µM in the assay with UACC-257 melanoma; more than 100 µM in the assay on MALME-3M melanoma; more than 100 µM with SW-620 colon. Further, the GI50 with HCT-15 colon, in the assay with HS 578T breast, with OVCAR-8 ovarian and in the assay on CAKI-1 renal was more than 100 µM throughout. The TGI in the assay on M14 melanoma, in the assay on A498 renal, in the assay on SK-MEL-28 melanoma, with UACC-257 melanoma, with MALME-3M melanoma and in the assay with SW-620 colon was more than 100 µM each time. In addition, the TGI with HCT-15 colon, in the assay with HS 578T breast, in the assay on OVCAR-8 ovarian and in the assay with CAKI-1 renal was more than 100 µM each time.
Regarding `COc1ccc2c(c1)C(=O)/C(=C/c1ccc([N+](=O)[O-])s1)O2`, the GI50 was 0.358 µM in the assay with M14 melanoma; 2.05 µM with A498 renal; 0.248 µM in the assay on SK-MEL-28 melanoma; 0.819 µM in the assay on UACC-257 melanoma; 0.451 µM with MALME-3M melanoma; 0.211 µM in the assay with SW-620 colon. Moreover, the GI50 in the assay with HCT-15 colon is 0.219 µM; with HS 578T breast, 0.269 µM; in the assay with OVCAR-8 ovarian it was 0.362 µM; with CAKI-1 renal, 2.19 µM. In addition, the TGI stood at 1.31 µM in the assay on M14 melanoma; 6.51 µM in the assay on A498 renal; 0.689 µM in the assay on SK-MEL-28 melanoma; 3.11 µM in the assay on UACC-257 melanoma; 1.76 µM with MALME-3M melanoma; 0.507 µM in the assay on SW-620 colon. For the same molecule, the TGI with HCT-15 colon is 0.697 µM; in the assay with OVCAR-8 ovarian, more than 100 µM; in the assay with CAKI-1 renal, more than 100 µM.
Regarding `CO/N=C(\COc1ccc2c(c1)oc(=O)c1cc(OC)ccc12)c1ccc(F)cc1`, the GI50 with M14 melanoma is 17.8 µM; with A498 renal, 22.3 µM; with SK-MEL-28 melanoma, 87.3 µM; in the assay with UACC-257 melanoma, 45.5 µM; with MALME-3M melanoma it was 26.7 µM; in the assay on SW-620 colon it was 34.8 µM. In addition, the GI50 in the assay on HCT-15 colon was 24.7 µM; with HS 578T breast, 29.9 µM; in the assay on OVCAR-8 ovarian it was 26.7 µM; in the assay with CAKI-1 renal it was 19.1 µM. In addition, the TGI in the assay with M14 melanoma is 45.7 µM; in the assay on A498 renal it was 93.5 µM; with SK-MEL-28 melanoma, more than 100 µM; in the assay on UACC-257 melanoma, more than 100 µM; with MALME-3M melanoma, 84.6 µM; in the assay with SW-620 colon it was more than 100 µM. The TGI was 81.9 µM in the assay with HCT-15 colon, more than 100 µM with HS 578T breast, more than 100 µM in the assay with OVCAR-8 ovarian and 55 µM in the assay on CAKI-1 renal.
As to `Cn1c(=O)c2[nH]c(C3CC(=O)CC(c4nc5c([nH]4)c(=O)n(C)c(=O)n5C)N3)nc2n(C)c1=O` (centres undefined), the TGI in the assay with M14 melanoma, in the assay on A498 renal, with SK-MEL-28 melanoma, in the assay with UACC-257 melanoma, in the assay with MALME-3M melanoma and in the assay with SW-620 colon was more than 100 µM throughout. The TGI in the assay with HCT-15 colon, with HS 578T breast, with OVCAR-8 ovarian and in the assay with CAKI-1 renal was more than 100 µM throughout.
`O=c1oc2ccc(F)cc2c(=O)n1-c1ccc(Cl)cc1F`: the GI50 was 0.594 µM in the assay with M14 melanoma; 0.24 µM with A498 renal; 0.456 µM in the assay with SK-MEL-28 melanoma; 0.66 µM in the assay on UACC-257 melanoma; 0.403 µM in the assay on MALME-3M melanoma; 1.24 µM in the assay with SW-620 colon. For the same molecule, the GI50 in the assay with HCT-15 colon is 1.26 µM; in the assay with HS 578T breast, 0.572 µM; in the assay on OVCAR-8 ovarian, 2.05 µM; in the assay on CAKI-1 renal it was 0.36 µM. Besides, the TGI stood at 4.55 µM with M14 melanoma; 0.796 µM with A498 renal; 2.92 µM with SK-MEL-28 melanoma; 4.54 µM in the assay on UACC-257 melanoma; 2.51 µM with MALME-3M melanoma; 21.2 µM with SW-620 colon. For the same molecule, the TGI in the assay on HCT-15 colon worked out at 10.3 µM; in the assay with HS 578T breast, 5.77 µM; with OVCAR-8 ovarian, 26.2 µM; in the assay on CAKI-1 renal it was 3.41 µM.
With `COc1cc(OC)c2cc(C(=O)O)c(=O)oc2c1`, the GI50 was more than 100 µM in the assay on M14 melanoma; more than 21.4 µM in the assay with A498 renal; more than 29.5 µM with SK-MEL-28 melanoma; more than 85.9 µM with UACC-257 melanoma; more than 100 µM with MALME-3M melanoma; more than 100 µM in the assay on SW-620 colon. For the same molecule, the GI50 in the assay on HCT-15 colon is more than 100 µM; with OVCAR-8 ovarian, more than 100 µM; with CAKI-1 renal it was 61.4 µM. Besides, the TGI in the assay on M14 melanoma was more than 100 µM; with A498 renal, more than 75 µM; in the assay on SK-MEL-28 melanoma, more than 100 µM; in the assay with UACC-257 melanoma, more than 100 µM; in the assay on MALME-3M melanoma it was more than 100 µM; in the assay on SW-620 colon, more than 100 µM. Moreover, the TGI was more than 100 µM in the assay on HCT-15 colon, more than 51.4 µM in the assay on HS 578T breast, more than 100 µM in the assay with OVCAR-8 ovarian and more than 100 µM in the assay on CAKI-1 renal.
